Series [1] relates to Bacillus subtilis Bs11. Kind of series: inhibition zone assay, lethal concentration. The format is cell-based. How it is done: (§1) The products of the invention were tested for activity against a variety of test organisms selected to represent a number of different types of pathogens some of them known to be particularly virulent by the inhibition zone assay of Hoffmann et al (1981) Insect Biochem. 11 537-548 which is incorporated herein by reference. Thin agar or agarose plates (8.5 cm diameter) were prepared with 6 ml of rich medium containing 100 ug/ml of streptomycin and 2×10^5 viable cells of a test organism resistant to streptomycin. Wells of […] diameter were punched in the plates and 3 ul of serially diluted samples were placed in the wells. The diameters of the zones of inhibition around the wells were measured after overnight incubation at 30° or 37° C. For each peptide the squares of the zone diameters were plotted against the logarithm of the concentration, and from the slopes and intercepts the lethal concentrations were calculated as described by Hultmark (1983) EMBO J. 2, 571-76 or Hultmark et al (1982) Eur. J. Biochem. 127 207-217 each of which being incorporated herein by reference.
(§2) It was observed during testing that basic peptides often bind to agar plates, but not so much to agarose. Therefore those lethal concentrations determined on agar may, in fact, be substantially higher than the actual lethal concentrations.
(§3) Novel peptides CA(1-8)M(1-18), CA(1-9)M(1-17), CB(1-13)M(1-13), CA(1-17)M(1-9), CA(1-18)M(1-8), M(1-13)CA(1-22) and M(1-13)CA(1-13) were prepared as described above (see Examples 1-6). These novel peptides and CA, CB, and M were tested for activity against a variety of organisms selected to represent a number of different types of pathogens, some of them known to be particularly virulent by the inhibition zone assay of Hoffmann et al (1981), Insect Biochem. 11 537-48. As in Examples 1-6, thin agarose plates were prepared with the respective organisms. The diameters of the zones of inhibition were measured after overnight incubation at 30° C. The lethal concentrations were determined as described above (see Examples 1-6; Hultmark et al articles cited thereat).

In series [2] the test system is Escherichia coli D21. Kind of series: inhibition zone assay, lethal concentration. The format is cell-based. Here is the method:
as §1, §2, §3

The test system of series [3] is Pseudomonas aeruginosa OT97. Kind of series: inhibition zone assay, lethal concentration. The format is cell-based. Here is the method: as §1, §2, §3
The test system of series [4] is Staphylococcus aureus Cowan I. As to the kind of experiment: inhibition zone assay, lethal concentration. The format is cell-based. How it is done: as §1, §2, §3
Series [5] concerns Streptococcus pyogenes. As to the kind of experiment: inhibition zone assay, lethal concentration. The format is cell-based. How it is done: as §1, §2, §3
The subject of series [6] is Bacillus megaterium BM11. As to the kind of experiment: inhibition zone assay, lethal concentration. The format is cell-based. The conditions noted are these: Table 2, footnote c: incubation overnight at 37° C. Here is the method:
as §1, §2

Series [7] relates to Candida albicans. Kind of series: inhibition zone assay, lethal concentration. Particulars: Table 2, footnote c: incubation overnight at 37° C. The format is cell-based. How it is done:
as §1, §2

Series [8] has as its system Escherichia coli D22. Kind of series: inhibition zone assay, lethal concentration. Particulars: Table 2, footnote c: incubation overnight at 37° C. The format is cell-based. Here is the method: as §1, §2
In series [9] the test system is Micrococcus luteus Ml11. Kind of series: inhibition zone assay, lethal concentration. The format is cell-based. The conditions noted are these: Table 2, footnote c: incubation overnight at 37° C. Here is the method: as §1, §2
The test system of series [10] is Saccharomyces cerevisiae. Kind of series: inhibition zone assay, lethal concentration. The format is cell-based. The conditions noted are these: Table 2, footnote c: incubation overnight at 37° C. Here is the method:
as §1, §2

Series [11] has as its system Staphylococcus haemolyticus. Kind of series: inhibition zone assay, lethal concentration. The conditions noted are these: Table 2, footnote c: incubation overnight at 37° C. The format is cell-based. Here is the method: as §1, §2
Series [12] relates to Xenorhabdus nematophilis Xn21. Kind of series: inhibition zone assay, lethal concentration. The format is cell-based. Particulars: Table 2, footnote c: incubation overnight at 37° C. How it is done:
as §1, §2

Series [13] relates to Sheep Red Cells. Kind of series: lysis of sheep red blood cells (lysis assay or SRC plate assay). The format is cell-based. How it is done: These values were obtained by either the lysis assay normally used for melittin or by an adaptation of the antibacterial inhibition zone assay of the above-cited Hultmark et al articles to plates with sheep red cells (SRC). With respect to the latter, sterile agarose plates contained 6 ml of medium With 1% agarose, 0.9% NaCl and 10% SRC suspended in Alsevers solution. A dilution series of peptide was applied in 3 mm wells each loaded with 3 μl of the respective samples. The plates were incubated at 30° C. for 24 h, the zones were recorded and LC values calculated as described in the Hultmark et al articles. Clear zones were recorded after a few hours of incubation and the use of such data gave an LC value of the same order as readings after 24 h. This plate assay is faster and more convenient than the lysis assay normally used for melittin.

In series [14] the test system is Plasmodium falciparium strain F32 (Tanzania), blood stream forms. As to the kind of experiment: inhibition of reinvasion of human red cells by malaria parasite. Particulars: FIG. 1, blood stream form of Plasmodium falciparium. The format is cell-based, Plasmodium falciparum. Here is the method: Hybrid peptides CA(1-13)M(1-13) and CA(1-8)M(1-18) were prepared as described above (see Examples 1-6) and were assayed for activity against the blood stream form of Plasmodium falciparium. For comparison the test included cecropins A and B and the frog skin peptides magainin 2 and PGLa.
The blood stream forms of the malaria parasite Plasmodium falciparium, primarily late trophozoites and early schizonts, were assayed by recording the inhibition of the reinvasion of human red cells by the method of Wahlin, B., et al, (1984) Proc. Nat'l Acad. Sci. USA 81, 7912-16, incorporated herein by reference. Quadruplicate microcultures of strain F32 (Tanzania) were incubated for 20 hrs at 37° C. in a complete tissue culture medium, with or without different concentrations of the peptides to be assayed. After acridine orange staining, the percentage of newly infected red cells was scored in a fluorescence microscope. For each culture 40,000 red cells were analysed for parasitic infection. Duplicate assays were run for CA(1-13)M(1-13).

Where [15] appears, read: Table 2, footnote a: incubation overnight at 30° C. as well as at 37° C.
[16] abbreviates: Table 3, agarose plates, overnight incubation at 30° C.
Setting [17] is: Table 2, footnote b: incubation overnight at 30° C.
Setting [18] is: Table 2, footnote c: incubation overnight at 37° C.

Where no end group is shown, it is not given here.

Regarding “KWKLFKKIEKVGQNIRDGIIKAGPAVAVVGQATQIAK-NH2 [CA(1-37), Cecropin A]”, the “Lethal concentration, Bacillus subtilis Bs11 (Medium E)” value in series [1] (Table 2, Medium E, footnote c: incubation overnight at 37° C.) stood at 200 µM. Also, the “Lethal concentration, Bacillus subtilis Bs11” value in series [1] (setting [15]) is 4 µM. Moreover, the “Lethal concentration, Bs11 = B. subtilis” value in series [1] (setting [16]) was determined as 4 µM. For the same substance, in [1] (Table 3, medium E, agarose plates, overnight incubation at 30° C.), the “Lethal concentration, Bs11 + ME = B. subtilis, plates prepared with medium E” value came out at 200 µM. Further, in [2] (setting [15]), the “Lethal concentration, Escherichia coli D21” value came to 0.2 µM. Besides, the “Lethal concentration, D21 = E. coli” value in [2] (setting [16]) stood at 0.2 µM. The entries for the “Lethal concentration, Pseudomonas aeruginosa OT97” value in [3] (setting [17]) and in series [3] (setting [18]) were 2 µM and 1.6 µM, respectively. The “Lethal concentration, OT97 = P. aeruginosa” value in [3] (setting [16]) was 2 µM. In series [4] (setting [15]), the “Lethal concentration, Staphylococcus aureus Cowan I” value is > 200 µM. Further, the “Lethal concentration, Staph = S. aureus Cowan I” value in series [4] (setting [16]) came out at 200 µM. The “Lethal concentration, Streptococcus pyogenes” value is 4 µM in series [5] (setting [17]) and 6 µM in [5] (setting [18]). In series [5] (setting [16]), the “Lethal concentration, Strep = S. pyogenes” value was 4 µM. The “Lethal concentration, Bacillus megaterium BM11” value in series [6] worked out at 1 µM. In addition, the “Lethal concentration, Candida albicans” value in series [7] is > 200 µM. Also, the “Lethal concentration, Escherichia coli D22” value in series [8] turned out to be 0.5 µM. For the same substance, in series [9], the “Lethal concentration, Micrococcus luteus Ml11” value was found to be 1 µM. For the same substance, the “Lethal concentration, Saccharomyces cerevisiae” value in series [10] was found to be 60 µM. In addition, in series [11], the “Lethal concentration, Staphylococcus haemolyticus” value was 3 µM. Moreover, in series [12], the “Lethal concentration, Xenorhabdus nematophilis Xn21” value worked out at 2 µM. Also, in series [13] (setting [15]), the “Lethal concentration, Sheep Red Cells” value is > 200 µM. In [13] (Table 3), the “Lethal concentration, SRC = Sheep Red Cells” value turned out to be 200 µM. Moreover, the “antimalarial potency in words” value in series [14] was “negligible activity”.

Values taken from patent US5714467A, “Antibacterial and antimalarial hybrid peptides” (The Rockefeller University, priority 1993, dated 1998).
